Data on twelve compounds can be found in patent publication US20090048221A1, “Conjugates with Anti-Inflammatory Activity” (priority 2004, published 2009).

Structures can show the parent of a compound that is named as a salt.

Data set [1] relates to Mouse T-cell hybridoma 13. As to the kind of experiment: Inhibition of mouse T-cell hybridoma 13 proliferation as a result of apoptosis induction. Type of data set: cell-based. As to conditions: for IC50: Mus musculus, T-cell, [3H]thymidine incorporation, overnight incubation; for inhibition of T-cell hybridoma 13 proliferation: in the concentrations from 1 μM to 1 nM. The protocol:
Triplicates of test steroid dilution in RPMI medium (Institute of Immunology, Zagreb) with 10% FBS were added to a 96 well plate. […] Then 1 μCi of [^3H]thymidine (Pharmacia, Piscataway, N.J. USA) was added and the mixture was incubated for an additional 3 hours. The cells were harvested by applying a vacuum over GF/C filter (Packard). Onto each well, 30 μl of Microscynt O scintillation liquid (Packard) was added and the incorporated radioactivity was measured on a β-scintillation counter (Packard).
In general terms: Incorporation of labelled thymidine or its analogues reports DNA synthesis.

In the next data set the test system is Male Sprague-Dawley rats. In words: Croton oil induced ear edema in male Sprague-Dawley rats. Type of data set: in vivo. As to conditions: applied topically once, n=8. As to the method: Test and reference substances, as well as vehicle (acetone), were administered topically to the inner and the outer surface of the right ear of each animal with an automatic pipette, in a volume of 60 μL/ear (30 μL/surface), thirty minutes before the croton oil challenge. Test substances were administered in the doses of 2 or 5 mg/ear/60 μL of acetone. Dexamethasone was administered in the dose of 1 mg/ear/60 μL of acetone. Thirty minutes later, 20% croton oil emulsion in acetone was applied topically to the inner and the outer surface of the right ear of each animal with an automatic pipette, in a volume of 60 μL/ear (30 μL/surface). Five hours after the challenge, animals were euthanized by asphyxiation in 100% CO2 atmosphere. For assessing the auricular edema, 8 mm discs were cut out of left and right auricular pinna and weighed. The degree of edema was calculated by subtracting the weight of 8 mm disc of the untreated ear from that of the treated contralateral ear.

A further data set concerns Sprague-Dawley rats. In words: Subcutaneous sponge implantation model. Particulars: seven days after implantation; for thymus weight: vs vehicle.
In a further data set the test system is Male Balb/C mice. In words: Model of lung eosinophilia in mice (OVA sensitised and challenged).
The next data set has as its system Male Balb/cJ mice. In words: Lung neutrophilia induced by bacterial lipopolysaccharide. Type of data set: in vivo. Particulars: 24 hours after LPS. The protocol: Male Balb/cJ mice (Iffa Credo, Lyon, France) weighing 25 g were randomly grouped in three groups: test, positive and negative control (10 animals per each group). Vehicle, beclomethasone dipropionate or test substance were applied intranasally (i.n.) to Balb/cJ mice. Thirty minutes later, 60 μl of bacterial lipopolysaccharide (LPS), dissolved in PBS at the concentration of 167 μg/ml, was given i.n. to all groups except the negative control group, which received the same volume of PBS. Animals were sacrificed after 24 hours and bronchoalveolar lavage fluid (BALF) collected for determination of neutrophils and […] and TNF-α concentration. Cytokines were measured using sandwich ELISA (R&D Systems). Statistical analysis was performed using GraphPad prism software, one-way ANOVA Turkey Kramer Multiple comparison test.

Data set [2] deals with T1, human glucocorticoid receptor (Homo sapiens, UniProt P04150).
T1 construct: expressed in transfected cells; host or cells: COS-1 cells, transient transfection with pcDNA3.1 Hygro(+) carrying the cloned cDNA
T1 sequence (P04150 1-777): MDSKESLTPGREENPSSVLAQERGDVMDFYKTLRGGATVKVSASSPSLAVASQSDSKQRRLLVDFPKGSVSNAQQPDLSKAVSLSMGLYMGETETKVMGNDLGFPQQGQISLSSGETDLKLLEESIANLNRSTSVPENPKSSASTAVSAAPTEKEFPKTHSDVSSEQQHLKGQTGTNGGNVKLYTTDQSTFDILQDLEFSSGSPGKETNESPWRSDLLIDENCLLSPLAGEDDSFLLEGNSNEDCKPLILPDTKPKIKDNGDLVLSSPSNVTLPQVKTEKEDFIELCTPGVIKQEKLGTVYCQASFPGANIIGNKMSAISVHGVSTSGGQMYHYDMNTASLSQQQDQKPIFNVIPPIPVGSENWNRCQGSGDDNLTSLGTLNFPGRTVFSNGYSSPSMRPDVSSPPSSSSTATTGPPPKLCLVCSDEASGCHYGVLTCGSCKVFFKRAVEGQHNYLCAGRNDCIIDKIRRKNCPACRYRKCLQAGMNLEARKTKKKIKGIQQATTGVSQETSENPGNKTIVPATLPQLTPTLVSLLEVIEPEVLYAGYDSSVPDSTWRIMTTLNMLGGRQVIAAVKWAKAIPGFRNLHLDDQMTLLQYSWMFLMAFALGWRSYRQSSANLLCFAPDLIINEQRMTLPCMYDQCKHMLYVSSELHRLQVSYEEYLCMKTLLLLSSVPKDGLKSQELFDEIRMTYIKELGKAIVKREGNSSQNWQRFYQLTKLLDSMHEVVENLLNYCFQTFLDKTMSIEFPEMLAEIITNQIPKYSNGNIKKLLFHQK
As to the kind of experiment: Assay of binding to human glucocorticoid receptor ([3H]dexamethasone displacement in transfected COS-1 cells). Particulars: 24 nM [3H]dexamethasone, COS-1 cells transfected with human GR alpha. The protocol: The cells were incubated at 37° C. in an atmosphere with 5% CO2 and after 5 hours the same volume of 20% FBS/DMEM was added.

Data set [3] has as its system interleukin 4, interleukin 5 and interferon γ production. In words: Inhibition of interleukin 4, interleukin 5 and interferon γ production by concanavalin-A induced murine splenocytes. Type of data set: cell-based, Balb/C mice. Particulars: in concentrations from 1 μM to 1 nM; concanavalin-A stimulated splenocytes, 72 hours. The source says:
Splenocytes were isolated from the spleen of Balb/C mice sacrificed by thiopental injection (Pliva, Zagreb, Croatia). Spleens were chopped and mononuclear cells separated on Histopaque 1083 (Sigma Diagnostics, St. Louis, Mo. USA Cat. No 1083-1). Into a 96-well plate, compounds diluted in RPMI medium (Institute of Immunology, Zagreb, Croatia) were pipetted with 10% foetal bovine serum (Biowhittaker) and cells (200000 per well) in the same medium, and concanavalin-A stimulator (Sigma 2002-2003 cat. No C5275) at a final concentration of […] were added. The positive control, in place of the dilution of compounds, consisted of RPMI medium with 10% foetal bovine serum and concanavalin-A in the same concentration of. Cells were incubated for 72 hours at 37° C., 95% humidity and in an atmosphere with 5% CO2. Until determination of cytokines, the cells were frozen at −70° C.
Cytokines interleukin 4, interleukin 5 and interferon γ were determined by the specific ELISA method, according to manufacturer's recommendations (R&D).
Inhibition (as percentage) was calculated using the following formula:
% inh=(1−[concentration of cytokines in sample]/[concentration of cytokines in positive control])*100

[4] abbreviates: 4 mg/kg i.n., vs positive control.

Description for Male Balb/C mice: Male Balb/C mice with a body weight of 20-25 g were randomly divided into groups, and sensitised by an i.p. injection of ovalbumin (OVA, Sigma, St. Louis, Mo. USA) on day zero and day fourteen. On the twentieth day, the mice were subjected to a challenge test by i.n. (intranasal) application of OVA (positive control or test groups) or PBS (negative control). 48 hours after i.n. application of OVA, the animals were anaesthetized and the lungs were rinsed with 1 mL of PBS. The cells were separated on Cytospin 3 cytocentrifuge (Shandon). The cells were stained in Diff-Quick (Dade) and the percentage of eosinophils was determined by differential counting of at least 100 cells.
Beclomethasone (Pliva d.d.) were used as a standard substances, with positive and negative control. The compounds were administered daily i.n. or i.p. in different doses 2 days before the challenge test and up to the completion of the test.
Corticosterone levels were determined in plasma from each animal using a kit for determination of corticosterone (R&D systems).

On to `CCOC(=O)[C@@]1(OC(=O)CCNCCCN2C[C@H](C)C[C@@](C)(O)[C@H](O)[C@@H](C)[C@H](O)[C@@H](C)C(=O)O[C@H](CC)[C@@](C)(O)[C@H](O)[C@H]2C)[C@H](C)CC2C3C[C@H](F)C4=CC(=O)C=C[C@]4(C)[C@@]3(F)[C@@H](O)C[C@@]21C` (stereo partly drawn) [Compound 16], for which it took 112 nM to reach half-maximal inhibition in data set [1] (IC50).

On to `CC[C@H]1OC(=O)[C@H](C)[C@@H](O)[C@H](C)[C@@H](O)[C@](C)(O)C[C@@H](C)CN(CCCCNCCC(=O)O[C@]2(C(=O)OC)[C@H](C)CC3C4C[C@H](F)C5=CC(=O)C=C[C@]5(C)[C@@]4(F)[C@@H](O)C[C@@]32C)[C@H](C)[C@@H](O)[C@]1(C)O` (stereo partly drawn) [Compound 17], for which the IC50 (usually the midpoint of a concentration-inhibition curve) in data set [1] was found to be 41.6 nM. The “reduction of ear edema” value in the data set with Male Sprague-Dawley rats (5 mg/ear) is 76.59%.

Regarding `C[C@H]1C[C@H]2[C@@H]3CCC4=CC(=O)C=C[C@]4(C)[C@@]3(Cl)[C@@H](O)C[C@]2(C)[C@@]1(O)C(=O)CO` [beclomethasone], the thymus weight result in the data set on Sprague-Dawley rats (2 mg/sponge) and in the data set with Sprague-Dawley rats (10 mg/sponge) was “significantly decreased” in each case. The plasma corticosterone concentration entry with Sprague-Dawley rats (10 mg/sponge, vs vehicle control) is “significantly decreased”. Besides, the plasma corticosterone levels entry with Male Balb/C mice (1 mg/kg intranasally, mice) was “significantly suppressed”.

Turning to `CC[C@H]1OC(=O)[C@H](C)[C@@H](O)[C@H](C)[C@@H](O)[C@](C)(O)C[C@@H](C)CN(CCCCCCNCCC(=O)O[C@]2(C(=O)OC)[C@H](C)CC3C4C[C@H](F)C5=CC(=O)C=C[C@]5(C)[C@@]4(F)[C@@H](O)C[C@@]32C)[C@H](C)[C@@H](O)[C@]1(C)O` (stereo partly drawn) [Compound 18], in data set [1], the IC50 stood at 474 nM.

Turning to `CC[C@H]1OC(=O)[C@H](C)[C@@H](O)[C@H](C)[C@@H](O)[C@](C)(O)C[C@@H](C)CN(CCCNC(=O)CCCCCCCCCCCNCCC(=O)O[C@]2(C(=O)OC)[C@H](C)CC3C4C[C@H](F)C5=CC(=O)C=C[C@]5(C)[C@@]4(F)[C@@H](O)C[C@@]32C)[C@H](C)[C@@H](O)[C@]1(C)O` (stereo partly drawn) [Compound 14], in data set [1], the IC50 came out at 455 nM.

For the compound `CC[C@H]1OC(=O)[C@H](C)[C@@H](O)[C@H](C)[C@@H](O)[C@](C)(O)C[C@@H](C)CN(CCCNCCC(=O)O[C@]2(C(=O)OC)[C@H](C)CC3C4C[C@H](F)C5=CC(=O)C=C[C@]5(C)C4[C@@H](O)C[C@@]32C)[C@H](C)[C@@H](O)[C@]1(C)O` (stereo partly drawn) [Compound 9], in data set [1], the IC50 is 303 nM and the “inhibition of T-cell hybridoma 13 proliferation” value is “exhibit inhibition”.

Consider `CCC(=O)OCC(=O)[C@@]1(OC(=O)CC)[C@@H](C)C[C@H]2[C@@H]3CCC4=CC(=O)C=C[C@]4(C)[C@@]3(Cl)[C@@H](O)C[C@@]21C` [Beclometbasone dipropionate, beclomethasone dipropionate, reference compound], for which, in the data set with Male Balb/cJ mice (2 mg/kg i.n.), the “concentration of IL-6 in BALF” value is “non-significantly decreased”, the “concentration of TNF-α in BALF” value is “non-significantly decreased” and the “neutrophils in BALF” value is listed as “non-significantly decreased”.

On to `CC[C@H]1OC(=O)[C@H](C)[C@@H](O)[C@H](C)[C@@H](O)[C@](C)(O)C[C@@H](C)CN(CCCNCCC(=O)O[C@]2(C(=O)OC)[C@H](C)CC3C4C[C@H](F)C5=CC(=O)C=C[C@]5(C)[C@@]4(F)[C@@H](O)C[C@@]32C)[C@H](C)[C@@H](O)[C@]1(C)O` (stereo partly drawn) [Compound 10], for which the “affinity for the glucocorticoid receptor (displacement of radioactive dexamethasone)” value in data set [2] was “have affinity for the glucocorticoid receptor”. In addition, in data set [1], half-maximal inhibition (IC50) was put at 41.7 nM. In addition, the “inhibition of T-cell hybridoma 13 proliferation” value in data set [1] was “exhibit inhibition”. Besides, the “inhibition of the production of cytokines” value in data set [3] is “inhibits the production of cytokines”. Besides, the results for the “reduction of ear edema” value in the data set on Male Sprague-Dawley rats (2 mg/ear) and in the data set with Male Sprague-Dawley rats (5 mg/ear) were 51.58% and 85.53%, respectively. Further, the granulation tissue formation entry in the data set on Sprague-Dawley rats (10 mg/sponge, vs non-treated and vehicle sponges) was “significantly reduced”. The “number of eosinophils in the lung rinse with respect to positive control” value in the data set with Male Balb/C mice (t-test, p<0.05) is given as “statistically significantly reduced”.

Regarding `C[C@@H]1C[C@H]2[C@@H]3CCC4=CC(=O)C=C[C@]4(C)[C@@]3(F)[C@@H](O)C[C@]2(C)[C@@]1(O)C(=O)CO` [Dexamethasone, reference compound], the “reduction of ear edema” value with Male Sprague-Dawley rats (1 mg/ear) is reported as 85.77%.

On to `CC[C@H]1OC(=O)[C@H](C)[C@@H](O)[C@H](C)[C@@H](O)[C@](C)(O)C[C@@H](C)CN(CCCNCCC(=O)O[C@]2(C(=O)OC)[C@H](C)CC3C4CCC5=CC(=O)C=C[C@]5(C)[C@@]4(F)[C@@H](O)C[C@@]32C)[C@H](C)[C@@H](O)[C@]1(C)O` (stereo partly drawn) [Compound 7], for which the “affinity for the glucocorticoid receptor (displacement of radioactive dexamethasone)” value in data set [2] is reported as “have affinity for the glucocorticoid receptor”. Besides, in data set [1], 464 nM corresponded to half-maximal inhibition (IC50) and the “inhibition of T-cell hybridoma 13 proliferation” value is reported as “exhibit inhibition”.

On to `CC[C@H]1OC(=O)[C@H](C)[C@@H](O)[C@H](C)[C@@H](O)[C@](C)(O)C[C@@H](C)CN(CCCNCCC(=O)O[C@]2(C(=O)OC)[C@H](C)CC3C4C[C@H](F)C5=CC(=O)C=C[C@]5(C)[C@@]4(F)[C@@H](O)C[C@@]32C)[C@H](C)[C@@H](O)[C@]1(C)O` (stereo partly drawn) [Compound 10 phosphate salt], for which, in the data set on Male Balb/cJ mice (setting [4]), the “concentration of IL-6 in BALF” value is “statistically significantly decreased”, the “concentration of TNF-α in BALF” value was “statistically significantly decreased” and the “neutrophils in BALF” value is recorded as “statistically significantly decreased”.

In data set [1], `CC[C@H]1OC(=O)[C@H](C)[C@@H](O)[C@H](C)[C@@H](O)[C@](C)(O)C[C@@H](C)CN(CCCNCCC(=O)O[C@]2(C(=O)OC)CCC3C4C[C@H](C)C5=CC(=O)C=C[C@]5(C)C4[C@@H](O)C[C@@]32C)[C@H](C)[C@@H](O)[C@]1(C)O` (stereo partly drawn) [Compound 13] registered an IC50 of 287 nM.
